{"source": "patent US20260276656A1", "about": "“GUT MICROBIOTA-RELATED METHODS FOR TREATING DEMENTIA AND AGE-DEPENDENT COGNITIVE DECLINE” (Albert-Ludwigs-Universitat Freiburg, priority 2019, published 2026)", "key": {"[1]": {"test_system": "medial prefrontal cortex neurons", "assay": "In vivo single unit recordings from medial prefrontal cortex during natural sleep, spike rate and population coupling", "design": "species or system mouse", "conditions": "5 mg/kg body weight i.p.; versus PBS; normalized to baseline; FIG. 9B", "protocol": "C57BL/6J mice aged 10-11 weeks were anesthetized with isofluorane (induction: 3%, maintenance approximately 1.5%). Buprenorphin (0.05-0.1 mg/kg body weight) and Carprofen (4-5 mg/kg body weight) were injected for analgesia. During implantation, the body temperature was maintained with a heating pad. The skin was incised from the cerebellum to the nose and the bone cleaned with 3% H2O2. Ground and reference screws (1 mm diameter) were inserted anterior to the lambdoid suture. A third stabilizing screw was inserted on the left parietal bone. […]\nAfter habituation to the recording room for several days, single-unit recordings were performed at a sampling frequency of 30 kHz using a 32-channel amplifier (Intan Technologies). […] First, a baseline was recorded during sleep identified as epochs when mice were completely immobile in their home cage and slow wave activity could be seen in the PFC local field potential. […]\nRecording sections containing artefacts were manually identified and removed. […] Firing rates were estimated from the total number of spikes during the analyzed behavioral episodes divided by the duration. To quantify population synchrony, we utilized a metric that compares the rate change of a given unit to the normalized population rate at each time point. […]"}, "[2]": {"test_system": "C57BL/6J mice", "assay": "Novel object recognition (NOR) test (recognition memory)", "assay_type": "in vivo, mouse", "conditions": "for recognition memory (Novel Object Recognition test): systemic (intraperitoneal) injection, FIG. 11 right; for NOR test performance: 5 mg/kg i.p. 1 h before", "protocol": "In order to acutely deplete the gut microbiota, 15-16 months old SPF males were treated via oral gavage with a mixture of antibiotics (ABX), containing Cefoxitin (Santa Cruz Biotechnology), Gentamicin (Sigma-Aldrich) Metronidazole (Sigma-Aldrich), and Vancomycin (Hikma-pharma), each 10 mg/kg in sterile 1×PBS, for three consecutive days. On the fourth day, the mice were treated with one dose of Clindamycin hydrochloride (33.3 mg/kg) (Sigma-Aldrich). Fecal microbiota transplantations (FMTs) were started 24 h later. To deplete csf1-dependent cells in vivo, including microglia, mice were provided with CSF1R-inhibitor PLX5622 (Plexxicon Inc.) mixed into AIN-76A standard chow at 1200 mg/kg (Research Diets Inc.) ad libitum. Respective controls received AIN-76A standard chow. Mice were injected with 5 mg/kg δ-valerobetaine (MCAT, Germany) 1 h before behavioral testing.\nFor microbiota depletion studies, SPF mice were treated with 1 mg/ml of ampicillin (Auromedics), neomycin sulfate (Fisher), streptomycin (Sigma) and 0.5 mg/ml of vancomycin (Sagent) in the drinking water for 4-5 weeks (Khosravi et al., 2014). These mice were recolonized via FMT, which was achieved by oral gavage of a faecal slurry. Recipient mice had the food removed from the cage for 2 h prior to FMT. The faecal slurry was obtained by pooling faecal pellets from 8-14 donor mice. The pellets were weighed and resuspended by vortexing for 1 min in 1 mL PBS per 300 mg of faeces. After pelleting larger particles by centrifugation at 500×g for 5 min, the supernatant was collected for FMT. Each recipient mouse received 150 μl of faecal slurry by oral gavage. The remaining slurry was stored at −80° C. for 16S rRNA sequencing. Following FMT, the cages of recipient mice were replenished with dirty bedding and fresh faecal pellets from donor mice once and twice a week, respectively. Faecal pellets for 16S rRNA sequencing were collected the day before FMT and at the end of the experiment and were stored at −80° C. for DNA extraction. For re-colonization of ABX treated mice, FMTs from 8 weeks old or 15-16 months old males were undergone. Fresh fecal pellets are collected under a sterile hood and directly thoroughly homogenized in 0.1% L-Cysteine hydrochloride monohydrate in 1×PBS in order to maintain anaerobic microbes. The homogenates were spun down for 1 min, 200 g at 4° C. and the turbid supernatant was used to orally and rectally gavage the recipient mice. The FMT was performed twice 72 h apart.\nNNN-trimethyl-5-aminovalerate was dissolved in 0.9% NaCl and administered i.p. at a dose of 200 mg/kg in a volume of 10 ml/kg. As control the vehicle NaCl was injected.\nMice were tested 40 min after drug- or vehicle injection or 4 weeks after FMT. We first performed the training run for the Novel-object recognition test, followed by the T maze test and then 6 h after the training session mice were tested in the Novel object recognition test. Spatial working memory was tested using the continuous spontaneous alternation task in a T-maze as described previously (Spowart-Manning, L. et al). Briefly, animals were set into the base of a T-maze and allowed to explore a randomly assigned T-maze arm until it returned to the base arm. Subsequently, the blocked arm was opened, and the animal was allowed to explore the complete maze. Once one arm of the T-maze was entered, the other arm was blocked until the animal returned to the base arm. Then, the exit of the base arm was blocked for 5 s and the animal was allowed to explore the maze again. The experiment was stopped after 14 free choice arm entries. Arm entries were scored as alternations if an animal chose the opposing arm compared to the arm visited immediately prior to the scored instance. The Novel Object Recognition (NOR) task was applied to evaluate recognition memory as published previously (Antunes, M. & Biala, G. et al). During the habituation phase, each mouse was allowed to explore two similar objects within a total exploration time of 20 s. […]"}}, "note": "Entries after “also recorded” stand apart in the source; their conditions may differ.", "data": [{"smiles": "C[N+](C)(C)CCCCC(=O)[O-]", "note": "[NNN-trimethyl-5-aminovalerate, 5-(trimethylammonio) pentanoate]", "values": [{"measurement": "average spike frequency (spike firing rate)", "setting": "[1]", "value": "No effect; also recorded: no change"}, {"measurement": "population coupling", "setting": "[1]", "value": "significant increase"}, {"measurement": "NOR: improvement in learning and memory after FMT from young mice", "setting": "[2]; old mice (15-16 months) +ABX+yFMT, 5 mg/kg i.p. 1 h before testing, FIG. 10G-H", "value": "abolished"}, {"measurement": "recognition memory (Novel Object Recognition test)", "setting": "[2]; old mice (20-24-month-old)", "value": "no additional impairing effects"}, {"measurement": "NOR test performance", "setting": "[2]; old mice that had received gut microbiota from old mice (old+ABX+oFMT), FIG. 10G-H", "value": "no additional deteriorating effect"}, {"measurement": "NOR test performance", "setting": "[2]; young adult mice (8 weeks), versus vehicle, FIG. 10C-D", "value": "significantly worse"}, {"measurement": "recognition memory (Novel Object Recognition test)", "setting": "[2]; young mice (2-month-old), PBS control", "value": "reduced"}]}]}
